Results reported in patent publication US20160058751A1, “COMPOSITION AND METHOD FOR TREATING CANCER” (CELLWORKS GROUP, INC., priority 2013, published 2016).
Read-outs that look alike come from different tables or passages of the source.

How the values were obtained:
[1] = tested on: H1650 human lung cancer cell line; assay: CellTiter 96 Aqueous One relative growth assay; format: cell-based; settings: for cell viability (FIG. 85) / cell viability (FIG. 91): ARQ-197 up to 3 μM; for cell viability (FIG. 85) / cell viability (FIG. 72): Atorvastatin up to 40 μM; for cell viability (FIG. 91) / cell viability (FIG. 79): BMS-303141 up to 20 μM; for cell viability (FIG. 72): Sorafenib up to 5 μM; for relative growth percentage: BMS-303141 20 μM, alone or both; for cell viability (FIG. 79): Sorafenib 3 μM and 5 μM
[2] = tested on: HCT116 human colon cancer cell line; assay: CellTiter 96 Aqueous One relative growth assay; settings: for cell viability (FIG. 86): ARQ-197 up to 3 μM; for cell viability (FIG. 86) / cell viability (FIG. 73): Atorvastatin up to 40 μM; for cell viability (FIG. 73): Sorafenib up to 5 μM; for cell viability (FIG. 80): BMS-303141 up to 20 μM, Sorafenib 3 μM and 5 μM
[3] = tested on: CaCo-2; settings: cited from earlier work
[4] = tested on: A549 human lung cancer cell line; assay: CellTiter 96 Aqueous One relative growth assay; format: cell-based; settings: for cell viability (FIG. 84) / cell viability (FIG. 90): ARQ-197 up to 3 μM; for cell viability (FIG. 84) / cell viability (FIG. 71): Atorvastatin up to 40 μM; for cell viability (FIG. 90) / cell viability (FIG. 78): BMS-303141 up to 20 μM; for cell viability (FIG. 71): Sorafenib up to 5 μM; for relative growth percentage: BMS-303141 20 μM, alone or both; for cell viability (FIG. 78): Sorafenib 3 μM and 5 μM
[5] = cited from earlier work
[6] = tested on: SW48 human colon cancer cell line; assay: CellTiter 96 Aqueous One relative growth assay; format: cell-based; settings: for cell viability (FIG. 87): ARQ-197 up to 3 μM, Atorvastatin up to 40 μM; for cell viability (FIG. 75): Sorafenib up to 5 μM, Atorvastatin up to 10 μM; for cell viability (FIG. 81): BMS-303141 up to 20 μM, Sorafenib 3 μM and 5 μM
Source text: The SW48 human colon cancer cell line was procured from ATCC (American Type Culture Collection, Manassas, Va.).

[7] = multiple species; cited from earlier work
[8] = in vivo, cited from earlier work
[9] = cited from earlier work; remark: listed apart in the source
[10] = XALKORI 250 mg twice daily, cited from earlier work
[11] = target: T1, ATP citrate lyase (Homo sapiens, UniProt P53396); settings: cited from earlier work
T1 sequence (P53396 1-1101): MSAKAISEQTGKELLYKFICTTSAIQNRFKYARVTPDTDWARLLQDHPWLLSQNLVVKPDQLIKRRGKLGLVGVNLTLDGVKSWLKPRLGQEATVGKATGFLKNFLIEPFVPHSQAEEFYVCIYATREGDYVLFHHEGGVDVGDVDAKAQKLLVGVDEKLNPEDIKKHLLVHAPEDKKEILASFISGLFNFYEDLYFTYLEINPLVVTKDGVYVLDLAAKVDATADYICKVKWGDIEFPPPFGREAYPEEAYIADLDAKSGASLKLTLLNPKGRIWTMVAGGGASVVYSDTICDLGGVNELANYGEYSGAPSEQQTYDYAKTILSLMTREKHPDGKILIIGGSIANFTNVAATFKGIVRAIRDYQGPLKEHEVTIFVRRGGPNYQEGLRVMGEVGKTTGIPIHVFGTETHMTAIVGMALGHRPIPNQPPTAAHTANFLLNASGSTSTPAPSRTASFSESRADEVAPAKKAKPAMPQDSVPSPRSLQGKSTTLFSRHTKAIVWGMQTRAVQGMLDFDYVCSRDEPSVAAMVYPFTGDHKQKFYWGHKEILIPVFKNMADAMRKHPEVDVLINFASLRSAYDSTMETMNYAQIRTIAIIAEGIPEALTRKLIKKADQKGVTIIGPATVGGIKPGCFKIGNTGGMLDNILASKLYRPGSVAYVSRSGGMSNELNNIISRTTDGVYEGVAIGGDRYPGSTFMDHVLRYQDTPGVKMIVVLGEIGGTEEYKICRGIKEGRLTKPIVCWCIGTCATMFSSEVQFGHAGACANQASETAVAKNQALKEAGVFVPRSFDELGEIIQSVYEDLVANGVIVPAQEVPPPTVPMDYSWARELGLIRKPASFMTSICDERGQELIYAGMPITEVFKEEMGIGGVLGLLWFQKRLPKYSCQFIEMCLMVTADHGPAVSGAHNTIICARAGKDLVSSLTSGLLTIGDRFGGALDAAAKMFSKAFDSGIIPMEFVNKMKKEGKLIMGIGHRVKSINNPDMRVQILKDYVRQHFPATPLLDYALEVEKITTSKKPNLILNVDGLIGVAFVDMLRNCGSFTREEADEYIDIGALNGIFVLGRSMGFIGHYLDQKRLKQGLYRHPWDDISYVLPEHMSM

[12] = rats; cited from earlier work
[13] = tested on: Hep G2 cells; settings: dose-related; cited from earlier work
[14] = in vivo; cited from earlier work
[15] = cited from earlier work; remark: listed apart in the source
[16] = tested on: CaCo-2 human colon cancer cell line; assay: CellTiter 96 Aqueous One relative growth assay; format: cell-based; settings: Sorafenib up to 5 μM, Atorvastatin up to 40 μM
[17] = tested on: HCT116 xenograft; assay: mouse xenograft model of HCT116
[18] = tested on: CAPAN1 xenograft; assay: mouse xenograft model of CAPAN1
[19] = cited from earlier work; remark: listed apart in the source
[20] = single 250 mg radiolabeled dose, healthy subjects
[21] = single 250 mg radiolabeled dose
[22] = oral 100 mg solution formulation

## O=C1NC(=O)[C@@H](c2cn3c4c(cccc24)CCC3)[C@@H]1c1c[nH]c2ccccc12 [ARQ-197, (3R,4R)-3-(5,6-dihydro-4H-pyrrolo[3,2,1-ij]quinolin-1-yl)-4-(1H-indol-3-yl)pyrrolidine-2,5-dione]
[1]
  cell viability (FIG. 85): negligible effect
  cell viability (FIG. 91): minor decrease
[2]
  cell viability (FIG. 86): small decrease
[3]
  permeability (CaCo-2 flux data): good permeability
[4]
  cell viability (FIG. 84): a decrease
  cell viability (FIG. 90): minor decrease
[5]
  mean terminal half-life (t1/2), tivantinib in plasma: 11.7 h
  median time to maximal concentration (tmax), tivantinib in plasma: 4 h
[6]
  cell viability (FIG. 87): most pronounced
[7]
  oral bioavailability: greater than 20%

## CC(C)c1c(C(=O)Nc2ccccc2)c(-c2ccccc2)c(-c2ccc(F)cc2)n1CC[C@@H](O)C[C@@H](O)CC(=O)O [Atorvastatin, (3R,5R)-7-[2-(4-fluorophenyl)-3-phenyl-4-(phenylcarbamoyl)-5-propan-2-ylpyrrol-1-yl]-3,5-dihydroxyheptanoic acid]
[1]
  cell viability (FIG. 85): negligible effect
  cell viability (FIG. 72): negligible decrease
[2]
  cell viability (FIG. 86): small decrease
  cell viability (FIG. 73): insignificant decrease
[4]
  cell viability (FIG. 84): a decrease
  cell viability (FIG. 71): negligible decrease
[6]
  cell viability (FIG. 87): a decrease
  cell viability (FIG. 75): negligible effect
[8]; po
  orally administered dose recovered in urine: Less than 2%
[8]
  circulating inhibitory activity for HMG-CoA reductase attributed to active metabolites: Approximately 70%
  systemic availability of the HMG-CoA reductase inhibitory activity: approximately 30%

## COc1ccc(-c2ccccc2)cc1NS(=O)(=O)c1cc(Cl)cc(Cl)c1O [BMS-303141, 3,5-Dichloro-2-hydroxy-N-(4-methoxy-[1,1′-biphenyl]-3-yl)-benzenesulfonamide]
[1]; ARQ-197 3 μM, about 66 hours
  relative growth percentage: about 76%
[1]
  cell viability (FIG. 91): minor decrease
  cell viability (FIG. 79): minor decrease
[1]; Sorafenib 5 μM, about 68 hours
  relative growth percentage: about 76%
[2]
  cell viability (FIG. 80): a decrease
[2]; Sorafenib 5 μM, BMS-303141 20 μM, alone or both, about 66 hours
  relative growth percentage: about 54%
[4]; ARQ-197 3 μM, about 66 hours
  relative growth percentage: about 105%
[4]
  cell viability (FIG. 90): minor decrease
  cell viability (FIG. 78): negligible decrease
[4]; Sorafenib 5 μM, about 68 hours
  relative growth percentage: about 105%
[6]
  cell viability (FIG. 81): minimal decrease
[6]; Sorafenib 5 μM, BMS-303141 20 μM, alone or both, about 68 hours
  relative growth percentage: about 78%

## C[C@@H](Oc1cc(-c2cnn(C3CCNCC3)c2)cnc1N)c1c(Cl)ccc(F)c1Cl [Crizotinib, 3-[(1R)-1-(2,6-dichloro-3-fluorophenyl)ethoxy]-5-(1-piperidin-4-ylpyrazol-4-yl)pyridin-2-amine]
[9]; 250 mg twice daily
  time to steady state: ≤ 15 days
[9]; high-fat meal
  reduction of AUCinf by a high-fat meal: approximately 14%
  reduction of Cmax by a high-fat meal: approximately 14%
[9]; single 250 mg oral dose
  mean absolute bioavailability: 43%
  mean apparent clearance (CL/F): 100 L/h
[9]; [20]
  administered dose recovered in feces: 63%
  administered dose recovered in urine: 22%
[9]; [21]
  unchanged crizotinib in feces, of administered dose: approximately 53%
  unchanged crizotinib in urine, of administered dose: ~2.3%
[9]; steady state after 250 mg twice daily
  mean apparent clearance (CL/F): 60 L/h
[10]; 16 of 1167 patients
  patients with QTcF greater than or equal to 500 msec: 1.4%
[10]; 51 of 1136 patients
  patients with increase from baseline QTcF greater than or equal to 60 msec: 4.4%

## O=C(O)C[C@@](O)(C[C@@H](O)CCCCCCc1ccc(Cl)cc1Cl)C(=O)O [SB-201076, (2S)-2-[(2S)-8-(2,4-dichlorophenyl)-2-hydroxyoctyl]-2-hydroxybutanedioic Acid]
[11]; competitive inhibitor, humans
  Ki: 1000 nM

## O=C(O)C[C@](O)(C[C@@H](O)CCCCCCc1ccc(Cl)cc1Cl)C(=O)O [SB-204990, (2R)-2-[(2S)-8-(2,4-dichlorophenyl)-2-hydroxyoctyl]-2-hydroxybutanedioic Acid]
[12]
  inhibition of cholesterol synthesis: 76%
  inhibition of fatty acid synthesis: 39%
[13]
  inhibition of cholesterol synthesis: up to 91%
  inhibition of fatty acid synthesis: ≤ 82%
[11]
  direct inhibition of ATP citrate-lyase: does not inhibit

## CCC(C)(C)C(=O)O[C@H]1C[C@@H](C)C=C2C=C[C@H](C)[C@H](CC[C@@H]3C[C@@H](O)CC(=O)O3)[C@H]21 [Simvastatin, [(1S,3R,7S,8S,8aR)-8-[2-[(2R,4R)-4-hydroxy-6-oxooxan-2-yl]ethyl]-3,7-dimethyl-1,2,3,7,8,8a-hexahydronaphthalen-1-yl]2,2-dimethylbutanoate]
[14]
  Half-life: 3 h

## CNC(=O)c1cc(Oc2ccc(NC(=O)Nc3ccc(Cl)c(C(F)(F)F)c3)cc2)ccn1 [Sorafenib, 4-[4-[[4-chloro-3-(trifluoromethyl)phenyl]carbamoylamino]phenoxy]-N-methylpyridine-2-carboxamide]
[1]
  cell viability (FIG. 79): minor decrease
  cell viability (FIG. 72): negligible decrease
[15]; high-fat meal compared to fasted state
  bioavailability reduced by: about 29%
[15]; in vivo
  Half-life: 25 to 48 h
[15]; [22]
  dose excreted in feces: 77%
  dose excreted in urine as glucuronidated metabolites: 19%
[15]; oral 100 mg solution formulation, within 14 days
  dose recovered: 96%
[15]
  share of the circulating analytes in plasma at steady-state: 70-85%
[2]
  cell viability (FIG. 80): a decrease
  cell viability (FIG. 73): insignificant decrease
[4]
  cell viability (FIG. 78): negligible decrease
  cell viability (FIG. 71): negligible decrease
[16]
  cell viability (FIG. 74): negligible effect
[6]
  cell viability (FIG. 81): minimal decrease
  cell viability (FIG. 75): negligible effect
[17]
  body weight: not significantly affected
  survival (Kaplan-Meier survival curve): prolonged survival rates
[17]; at 19 days
  inhibition of tumor volume / tumor growth: 16%
[18]
  body weight: not significantly affected
  survival (Kaplan-Meier survival curve): slightly prolonged survival rates

## Cn1cncc1[C@@](N)(c1ccc(Cl)cc1)c1ccc2c(c1)c(-c1cccc(Cl)c1)cc(=O)n2C [Tipifamib, 6-[(R)-amino-(4-chlorophenyl)-(3-methylimidazol-4-yl)methyl]-4-(3-chlorophenyl)-1-methylquinolin-2-one]
[2]; Tipifamib 3 μM, Crizotinib 8 μM, alone or combined, about 66 hours
  decrease in relative growth: ~22%
[19]; healthy volunteers, fed conditions
  absolute oral bioavailability: 34%
[19]; in vivo
  Half-life: 2 to 5 h
  urinary excretion of unchanged drug or its metabolites, of total dose: 13.7%
[19]; oral administration
  time to maximum plasma concentrations: two to three
[19]; two-fold increase in bilirubin concentration
  decrease in clearance: 6.9%

## [O-][n+]1ccccc1 [pyridine N-oxide]
[15]
  share of the circulating analytes in plasma at steady-state: 9-16%
